Data: US6897237B2, “MMP-12 inhibitors” (Shionogi & Co. Ltd., priority 2000, dated 2005)

Columns and labels:
MMP-1 = molecular target: T1, MMP-1 (Homo sapiens, UniProt P03956); test: Assay for inhibitory activities on MMPs (fluorogenic peptide substrate): MMP-1; format: biochemical; conditions: substrate MOCAc-Pro-Leu-Gly-Leu-A2Pr(DNP)-Ala-Arg-NH2
T1 construct: purchased Yagai
T1 sequence (P03956 100-469): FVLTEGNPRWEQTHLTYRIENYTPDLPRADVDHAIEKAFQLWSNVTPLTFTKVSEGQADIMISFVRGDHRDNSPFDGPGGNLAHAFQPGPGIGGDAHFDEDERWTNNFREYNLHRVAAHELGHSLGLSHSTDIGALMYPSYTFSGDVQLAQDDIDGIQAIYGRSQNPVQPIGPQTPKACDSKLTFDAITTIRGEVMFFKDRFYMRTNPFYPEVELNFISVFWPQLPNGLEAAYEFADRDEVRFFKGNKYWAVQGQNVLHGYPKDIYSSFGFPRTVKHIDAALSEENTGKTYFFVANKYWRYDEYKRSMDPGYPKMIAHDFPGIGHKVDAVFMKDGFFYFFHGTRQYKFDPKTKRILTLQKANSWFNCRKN
Protocol: MMP-1 was purchased from Yagai.
(§1) The enzymatic activity on MMPs was analyzed by the method described in “C. Graham Knight, Frances Willenbrock and Gillian Murphy: A novel coumarin-labelled peptide for sensitive continuous assays of the matrix metalloproteinases: FEBS LETT., 296, (1992), 263-266”. The substrate: MOCAc-Pro-Leu-Gly-Leu-A2Pr(DNP)-Ala-Arg-NH2 was purchased from Peptide Institute, Inc., Osaka, Japan. The measurement of the inhibitory activities (IC50) was carried out by the following four methods;
(§2) (A) Reaction with substrate, enzyme (MMPs) and inhibitor
(§3) (B) Reaction with substrate and inhibitor, without enzyme
(§4) (C) Reaction with substrate and enzyme (MMPs), without inhibitor
(§5) (D) Reaction with substrate only
(§6) IC50 values were calculated by using the following formula and each fluorescence values of above four methods (A to D).
(§7) % inhibition={1−(A−B)/(C−D)}×100
(§8) IC50 means the concentration required to inhibit 50% of the enzyme activity.

MMP-2 = molecular target: T2, MMP-2 (Homo sapiens, UniProt P08253); test: Assay for inhibitory activities on MMPs (fluorogenic peptide substrate): MMP-2; format: biochemical; conditions: substrate MOCAc-Pro-Leu-Gly-Leu-A2Pr(DNP)-Ala-Arg-NH2
T2 construct: purchased Calbiochem-Novabiochem International, Inc
T2 sequence (P08253 110-660): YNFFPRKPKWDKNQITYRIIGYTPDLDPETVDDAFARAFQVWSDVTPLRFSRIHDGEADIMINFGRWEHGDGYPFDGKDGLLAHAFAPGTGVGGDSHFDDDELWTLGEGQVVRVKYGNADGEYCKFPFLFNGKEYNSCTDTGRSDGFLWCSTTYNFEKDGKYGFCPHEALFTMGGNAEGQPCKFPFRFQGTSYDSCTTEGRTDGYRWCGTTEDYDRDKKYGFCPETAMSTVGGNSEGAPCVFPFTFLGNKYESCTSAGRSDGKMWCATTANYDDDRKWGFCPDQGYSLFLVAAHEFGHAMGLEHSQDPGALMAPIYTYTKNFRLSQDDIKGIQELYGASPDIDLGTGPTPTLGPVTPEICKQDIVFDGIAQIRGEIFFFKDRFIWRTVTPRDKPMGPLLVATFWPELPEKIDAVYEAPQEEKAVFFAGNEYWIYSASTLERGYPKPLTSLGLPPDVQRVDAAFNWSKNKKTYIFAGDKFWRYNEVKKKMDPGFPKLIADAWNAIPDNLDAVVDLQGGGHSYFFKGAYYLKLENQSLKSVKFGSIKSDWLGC
Protocol: MMP-2 was purchased from Calbiochem-Novabiochem International, Inc.
as §1, §2, §3, §4, §5, §6, §7, §8

MMP-8 catalytic domain = molecular target: T3, MMP-8 catalytic domain (Homo sapiens, UniProt P22894); test: Assay for inhibitory activities on MMPs (fluorogenic peptide substrate): MMP-8; format: biochemical; conditions: substrate MOCAc-Pro-Leu-Gly-Leu-A2Pr(DNP)-Ala-Arg-NH2
T3 construct: catalytic domain (^99Phe˜^262Gly); His-tag; enterokinase digestion-site; made in house; host or cells: Escherichia coli
T3 sequence (P22894 99-262): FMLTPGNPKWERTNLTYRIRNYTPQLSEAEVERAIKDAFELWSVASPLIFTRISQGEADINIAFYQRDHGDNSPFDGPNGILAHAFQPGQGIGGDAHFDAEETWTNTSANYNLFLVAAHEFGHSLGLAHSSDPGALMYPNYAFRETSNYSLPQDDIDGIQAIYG
Description: In regard to MMP-8, catalytic domain (^99Phe˜^262Gly) was amplified with PCR using commercial available Human Bone Marrow cDNA. This was cloned in Escherichia. coli expression vector pTrc99AHE inserted with His-tag sequence and enterokinase digestion-site, induced and expressed by IPTG (Isopropyl-β-D-thiogalactopyranoside) and expressed in a insoluble fraction (Than F. Ho, M. Walid Qoronfleh, Robert C. Wahl, Trica A. Pulvino, Karen J. Vavra, Joe Falvo, Tracey M. Banks, Patricia G. Brake and Richard B. Ciccarelli: Gene expression, purification and characterization of recombinant human neutrophil collagenase. Gene 146, (1994) 297-301, Prepared by the a improved method of this material). Isolation of MMP-8 from insoluble fraction was carried out by dissolving in modifier (6M urea) by a usual method and purification with metal chelate chromatography. And then removing modifier (6M urea) with dialysis and refolding of the enzyme spontaneously gave activated MMP-8.
as §1, §2, §3, §4, §5, §6, §7, §8

MMP-9 = molecular target: T4, MMP-9 (Homo sapiens, UniProt P14780); test: Assay for inhibitory activities on MMPs (fluorogenic peptide substrate): MMP-9; format: biochemical; conditions: substrate MOCAc-Pro-Leu-Gly-Leu-A2Pr(DNP)-Ala-Arg-NH2
T4 construct: endogenous in cells; host or cells: HT1080 human fibrosarcoma cells, TPA-stimulated; purified in house from conditioned medium
T4 sequence (P14780 107-707 limits assumed): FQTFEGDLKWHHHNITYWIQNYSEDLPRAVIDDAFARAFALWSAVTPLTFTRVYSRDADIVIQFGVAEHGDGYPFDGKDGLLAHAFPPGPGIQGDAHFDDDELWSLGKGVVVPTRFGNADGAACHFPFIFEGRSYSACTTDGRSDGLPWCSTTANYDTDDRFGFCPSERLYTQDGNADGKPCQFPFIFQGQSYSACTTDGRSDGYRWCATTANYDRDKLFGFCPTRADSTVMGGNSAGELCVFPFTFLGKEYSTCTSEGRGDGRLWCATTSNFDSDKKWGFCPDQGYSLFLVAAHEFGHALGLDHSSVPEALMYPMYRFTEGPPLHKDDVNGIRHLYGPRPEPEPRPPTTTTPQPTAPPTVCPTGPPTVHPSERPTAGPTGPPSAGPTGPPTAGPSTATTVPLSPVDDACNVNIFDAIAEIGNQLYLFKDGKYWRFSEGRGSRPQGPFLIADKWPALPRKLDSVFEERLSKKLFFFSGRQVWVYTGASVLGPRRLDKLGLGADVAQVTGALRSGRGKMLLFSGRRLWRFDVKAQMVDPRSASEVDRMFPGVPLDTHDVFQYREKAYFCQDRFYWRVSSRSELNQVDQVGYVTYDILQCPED
Description: MMP-9 was isolated and purified by using a combination of procedures described in previous reports as follows. Yasunori Okada, Yukio Gonoji, Katsumi Naka, Katsuro Tomita, Isao Nakanishi, Kazushi Iwata, Kyoko Yamashita, and Taro Hayakawa: Matrix metalloproteinase 9 (92-kDa gelatinase/type IV collagenase) from HT1080 human fibrosarcoma cells. Purification and activation of the precursor and enzymic properties. J. Biol. Chem., 267 (1.992) 21712-21719. Yasunori Okada, Tatsuhisa Morodomi, Jan J, Enghild, Ko Suzuki, Atsushi Yasui, Isao Nakanishi, Guy Salvesen and Hideaki Nagase: Matrix metalloproteinase 2 from human rheumatoid synovial fibroblasts. Purification and activation of the precursor and enzymic properties. Eur. J. Biochem. 194 (1990) 721-730. Robin V Ward, Rosalind M Hembry, John J Reynolds and Gillian Murphy: The purification of tissue inhibitor of metalloproteinase-2 from its 72 kDa progelatinase complex. Biochem. J. 278 (1991) 179-187.
Briefly, human fibrosarcoma ATCC HT1080 cell line was cultured to confluent in Dulbecco's Modified Medium (DMEM) containing 10% fetal-calf serum at 37° C. for 48 hours. Subsequently, the medium of confluent culture was changed to serum-free DMEM medium. To obtain MMP-9, Phorbol-12-myristate-13-acetate (TPA) must be added to this serum-free DMEM medium at a concentration of 50 ng/ml. The TPA treated medium was centrifuged at 3000 rpm for 15 min and the supernatant was concentrated to 450 ml by a Toyo-Roshi UP-20 apparatus with an ultrafiltration membrane. Then, proMMP-9 in this concentrated solution was purified by using columns of Gelatin-Sepharose and Concanavalin A-Sepharose. The pool containing proMMP-9 was dialyzed, concentrated (Toyo-Roshi UP-20) and applied to columns of Sephacryl S-200 and Green A matrix for the separation from TIMPs. The obtained proMMP-9 fraction was activated by TPCK-Trypsin (final conc. […] reaction mix.).
as §1, §2, §3, §4, §5, §6, §7, §8

MMP-12 catalytic domain = molecular target: T5, MMP-12 catalytic domain (Homo sapiens, UniProt P39900); test: Assay for inhibitory activities on MMPs (fluorogenic peptide substrate): MMP-12; format: biochemical; conditions: substrate MOCAc-Pro-Leu-Gly-Leu-A2Pr(DNP)-Ala-Arg-NH2
T5 construct: catalytic domain(^100Phe˜^263Gly); His-tag; enterokinase digestion-site; made in house; host or cells: Escherichia coli
T5 sequence (P39900 100-263): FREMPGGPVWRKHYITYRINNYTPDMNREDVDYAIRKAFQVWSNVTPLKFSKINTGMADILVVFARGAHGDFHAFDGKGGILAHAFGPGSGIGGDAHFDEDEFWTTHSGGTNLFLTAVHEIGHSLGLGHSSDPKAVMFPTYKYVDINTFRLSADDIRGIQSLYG
Protocol: (§9) In regard to MMP-12, catalytic domain(^100Phe˜^263Gly) was amplified with RT-PCR from Human Placenta Total RNA. This was cloned in Escherichia coli expression vector pTrc99AHE inserted with His-tag sequence and enterokinase digestion-site, induced and expressed by IPTG (Isopropyl-β-D-thiogalactopyranoside) and expressed in a insoluble fraction. Isolation of MMP-12 from a insoluble fraction was carried out by dissolving in modifier (6M urea) by a usual method and purification with metal chelate chromatography (Ni Chelateing Sepharose). And then removing modifier (6M urea) with dialysis and refolding of the enzyme spontaneously gave activated MMP-12.
as §1, §2, §3, §4, §5, §6, §7, §8

MMP-13 catalytic domain = molecular target: T6, MMP-13 catalytic domain (Homo sapiens, UniProt P45452); test: Assay for inhibitory activities on MMPs (fluorogenic peptide substrate): MMP-13; format: biochemical; conditions: substrate MOCAc-Pro-Leu-Gly-Leu-A2Pr(DNP)-Ala-Arg-NH2
T6 construct: catalytic domain (^104Tyr˜^267Gly); His-tag; enterokinase digestion-site; made in house; host or cells: Escherichia coli
Protocol: as §9, with “MMP-13, mRNA was prepared from carcinoma cell SW1353 derived from human cartilage stimulate by IL-1, TNF and” for “MMP-12,”, “domain (^104Tyr˜^267Gly)” for “domain(^100Phe˜^263Gly)”, “RT-PCR.” for “RT-PCR from Human Placenta Total RNA.”, “MMP-1.3” for “MMP-12”, “dialyze” for “dialysis”, “MMP-13.” for “MMP-12.”
as §1, §2, §3, §4, §5, §6, §7, §8

SMILES	IC50 (MMP-1) [nM]	IC50 (MMP-2) [nM]	IC50 (MMP-8 catalytic domain) [nM]	IC50 (MMP-9) [nM]	IC50 (MMP-12 catalytic domain) [nM]	IC50 (MMP-13 catalytic domain) [nM]	melting point [°C]
CC(C)[C@H](NS(=O)(=O)c1ccc(C#Cc2ccc3ccccc3c2)cc1)C(=O)O [Compound A-1]	> 10000	400	570	770	7.6	300	171 to 173
O=C(O)CNS(=O)(=O)c1ccc(C#Cc2ccc3ccccc3c2)s1 [Compound B-9]	> 10000	1270	> 10000	4230	260	7180	–
CSCC[C@@H](NS(=O)(=O)c1ccc(C#Cc2ccc3ccccc3c2)s1)C(=O)O [Compound B-10]	> 10000	350	1000	870	8.8	950	–
CSCC[C@H](NS(=O)(=O)c1ccc(C#Cc2ccc3ccccc3c2)s1)C(=O)O [Compound B-11]	> 10000	1860	2890	4900	110	6140	–
O=C(O)C[C@@H](NS(=O)(=O)c1ccc(C#Cc2ccc3ccccc3c2)s1)C(=O)O [Compound B-12]	> 10000	1250	2600	1100	40	1400	–
O=C(O)[C@@H](Cc1ccccc1)NS(=O)(=O)c1ccc(C#Cc2cccc3ccccc23)s1 [Compound B-17]	> 10000	> 10000	> 10000	> 10000	820	> 10000	–

Other lines, results leading:

IC50 (MMP-1) [nM]	IC50 (MMP-2) [nM]	IC50 (MMP-8 catalytic domain) [nM]	IC50 (MMP-9) [nM]	IC50 (MMP-12 catalytic domain) [nM]	IC50 (MMP-13 catalytic domain) [nM]	melting point [°C]	SMILES
> 10000	140	> 10000	> 10000	55	450	–	O=C(O)[C@@H](Cc1ccccc1)NS(=O)(=O)c1ccc(-n2nnc(-c3ccc4ccccc4c3)n2)cc1 [Compound C-1]
> 10000	> 10000	> 10000	> 10000	140	> 10000	–	O=C(O)[C@H](Cc1ccccc1)NS(=O)(=O)c1ccc(-n2nnc(-c3ccc4ccccc4c3)n2)cc1 [Compound C-2]
> 10000	560	4510	6560	150	2330	–	O=C(Nc1ccc(S(=O)(=O)N[C@@H](Cc2ccccc2)C(=O)O)cc1)c1ccc2ccccc2c1 [Compound D-2]
